Results reported in patent EP0107214A2, “Pharmaceutical compositions containing benzoyl-phenyl ureas with anti-tumour activity” (DUPHAR INTERNATIONAL RESEARCH B.V, priority 1982, dated 1984).
Where “and” joins values, the source holds several entries; their conditions need not be identical. Equal values may be shown once. Read-outs that look alike come from different tables or passages of the source.

Key:
[1] = test system: B-16 malignant melanoma; test: B-16 malignant melanoma in C57BL/6 mice, tumor growth after intraperitoneal injection; format: in vivo
Protocol: (§1) The compounds were tested by intraperitoneal injections of suspensions of the compounds in an aqueous solution of polyvinyl pyrrolidone.
Mice with malignant melanomas were injected with 20 mg or 40 mg diflubenzuron in suspension or with the suspension medium (blank).
Finally compound 2) was given in doses of 20 mg each on days 0, 1 and 2.
Animals with growing tumors were treated with 100 mg of diflubenzuron alone (suspended in an aqueous solution of polyvinylpyrrolidone) or in combination with a metabolic inhibitor or a metabolic inducer according to the schedule given in Table XI.

[2] = test system: Ridgeway Osteogenic Sarcoma (ROS); test: Ridgeway Osteogenic Sarcoma (ROS) in AKR mice, tumor growth after intraperitoneal injection; format: in vivo
Protocol: (§2) Ridgeway Osteogenic Sarcoma (ROS) in AKR mice. The advantage of the use of such a localized, non-metastatic tumor for studies on drug effects is that pertuba- tions of tumor growth and longevity of the mice are attributable to a direct effect on the primary tumor. • III. Skin carcinoma (Ca 1025) in AKR mice. This tumor represents a second histologic cell type arising from skin and is less malignant than malignant melanoma.
as §1
Doses of diflubenzuron of 20 mg on day 0 (Table VI), 20 mg each on days 0 and 3; and 20 mg each on days 0, 1, 2, 5 and 6 (Table VII) were used in this test model. […]

[3] = test system: Skin carcinoma (Ca 1025); test: Skin carcinoma (Ca 1025) in AKR mice, tumor growth after intraperitoneal injection; format: in vivo; settings: single injection 20 mg
Protocol: as §2, §1
The compound PH 60-44 was also tested in this model.

[4] = test system: melanoma B-16 cells; test: Malignant melanoma B-16 cells in vitro, cell count by Coulter Counter; format: cell-based; settings: Mus musculus; for activity at 50 µg/mL: B16, 48 h, 50 ug/ml
Protocol: Cells of malignant melanomas B-16 grow as a monolayer. The doubling time of this type of cells in a cell--culture is 12 to 16 hours. For this experiment 6 multi-well tissue culture plates having a flat bottom with a surface area of 6 cm^2 appeared to be suitable and have been used.
On day 0 a quantity of melanoma B-16 cells were brought on the cell-culture plates.
The test compounds were sonicated and then incubated without cells for 3 hours at 37°C.
Then the compound to be tested was administered to the plates with melanoma B-16 cells in the desired quantity (each test was done in triplicate). Thereafter the plates were incubated in a C02-incubator for 20 hours at 37°C. Then the incubation was stopped by removing the culture medium containing the test compound, the cells were washed twice, and fresh culture medium was added.
48 Hours after starting the incubation step the number of cells on each plate was measured by means of a microcell Coulter Counter. The results so obtained have been expressed as "percentage of controll cell growth".
In the above experiment the compounds to be tested have been used in the form of a suspension. Since it is not quite clear how much of the active compounds is dissolved, the above results cannot be compared very well.
Therefore a number of compounds has been dissolved in ethanol.

[5] = 100 mg (20 mg days 0-4) after 2.4 mg cobaltous chloride (1.2 mg on days -2 and -1)
[6] = 100 mg (20 mg days 0-4) after 4 mg phenobarbital (1 mg on days -4 to -1)
[7] = 100 mg (20 mg days 0-4) after 6.4 mg 3-methylcholanthrene (1.6 mg on days -4 to -1)
[8] = 100 mg total, 20 mg each on day 0, 1, 2, 3 and 4
[9] = 2 x 20 mg, on day 0 and day 2 or 4
[10] = single injection 40 mg, i.p. suspension
[11] = 5 x 20 mg, days 0, 1, 2, 5 and 6

O=C(NC(=O)c1c(F)cccc1F)Nc1ccc(Cl)cc1 [Compound 1, 1-(2,6-difluorobenzoyl)-3-(4-chlorophenyl)urea]
% change in tumor mass day 1 [1, 5]: 14.4 (16) %
% change in tumor mass day 2 [1, 5]: 20.9 (12) %
% change in tumor mass day 3 [1, 5]: 36.4 (12) %
% change in tumor mass day 4 [1, 5]: 39.3 (12) %
% change in tumor mass day 5 [1, 5]: 59.7 (12) %
% change in tumor mass day 10 [1, 5]: 306 (12) %
% change in tumor mass day 14 [1, 5]: 782 (9) %
% change in tumor mass day 1 [1, 6]: -19.4 (23) %
% change in tumor mass day 2 [1, 6]: -10.4 (23) %
% change in tumor mass day 3 [1, 6]: 0.8 (23) %
% change in tumor mass day 4 [1, 6]: 21.7 (23) %
% change in tumor mass day 5 [1, 6]: 72.1 (23) %
% change in tumor mass day 10 [1, 6]: 293 (23) %
% change in tumor mass day 14 [1, 6]: 572 (10) %
% change in tumor mass day 1 [1, 7]: -29.2 (34) %
% change in tumor mass day 2 [1, 7]: -23.5 (34) %
% change in tumor mass day 3 [1, 7]: -20.6 (32) %
% change in tumor mass day 4 [1, 7]: -15.1 (29) %
% change in tumor mass day 5 [1, 7]: 5.7 (21) %
% change in tumor mass day 10 [1, 8]: 266 (17) %
% change in tumor mass day 14 [1, 8]: 378 (12) %
% change in tumor mass on day 11 [1, 8]: 891 (12) %
% change in tumor mass day 2 ([1]; 100 mg total, 20 mg each on day 0, 1, 2, 3 and 4, listed as diflubenzuron): -8.6 (17) % and -12.5 (22) % and -7.2 (12) %
% change in tumor mass day 1 [1, 9]: -11.7 (26) %
% change in tumor mass day 2 [1, 9]: 18.6 (26) %
% change in tumor mass day 3 [1, 9]: 92.6 (16) %
% change in tumor mass day 4 [1, 9]: 143 (26) %
% change in tumor mass day 5 [1, 9]: 178 (10) %
% change in tumor mass day 6 [1, 9]: 264 (26) %
% change in tumor mass day 15 [1, 9]: 1187 (16) %
reduction in tumor size within 24 hours of treatment ([1]; initial injection of 20 mg, two experiments, listed as diflubenzuron): 11.7% and 13.4%
initial decrease (tumor size) ([1]; injection of 40 mg): 22%
% change in tumor mass day 2 ([1]; single injection 20 mg, i.p. suspension): 18.6(26) %
% change in tumor mass day 1 ([1]; single injection 20 mg, i.p. suspension, listed as diflubenzuron): -11.7(26) % and -13.4(22) %
initial doubling time (in days) 0-2 days ([1]; single injection 20 mg, calculated from change within 48 hours after treatment, listed as diflubenzuron): 10.4 days and 10.4(26) days
% change in tumor mass day 1 [1, 10]: -22.4(8) %
% change in tumor mass day 2 [1, 10]: -14.7(8) %
initial doubling time (in days) 0-2 days ([1]; single injection 40 mg, negative = time for decrease to one-half size): -6.7(8) days
% change in tumor mass day 1 ([2]; 20 mg on day 0): 14.4 (29) %
% change in tumor mass day 2 ([2]; 20 mg on day 0): 48.5 (19) %
% change in tumor mass day 1 ([2]; 2 x 20 mg, days 0 and 3): 32.0 (10) %
% change in tumor mass day 3 ([2]; 2 x 20 mg, days 0 and 3): 104 (10) %
% change in tumor mass day 4 ([2]; 2 x 20 mg, days 0 and 3): 213 (10) %
% change in tumor mass day 5 ([2]; 2 x 20 mg, days 0 and 3): 298 (10) %
% change in tumor mass day 7 ([2]; 2 x 20 mg, days 0 and 3): 511 (10) %
% change in tumor mass day 14 ([2]; 2 x 20 mg, days 0 and 3): 1682 (10) %
% change in tumor mass day 21 ([2]; 2 x 20 mg, days 0 and 3): 4051 (10) %
% change in tumor mass day 1 [2, 11]: 12.2 (10) %
% change in tumor mass day 2 [2, 11]: 43.3 (10) %
% change in tumor mass day 5 [2, 11]: 285 (10) %
% change in tumor mass day 7 [2, 11]: 423 (10) %
% change in tumor mass day 14 [2, 11]: 2495 (10) %
% change in tumor mass day 21 [2, 11]: 8880 (8) %
% change in tumor mass day 1 [3]: -3.8 (35) %
% change in tumor mass day 2 [3]: 19.9 (7) %
activity at 50 µg/mL ([4]; dissolved in ethanol, read-out: Percentage of controll cell growth (solution)): 48%
activity at 50 µg/mL ([4]; suspension, read-out: Percentage of controll cell growth (suspension)): 79%
activity at 500 µg/mL ([4]; B16, suspension, 20 hours incubation, cells counted at 48 hours, read-out: Percentage of controll cell growth when tested in an amount of 5 x 10^2 µg/ml): 78%
activity at 5000 µg/mL ([4]; B16, suspension, 20 hours incubation, cells counted at 48 hours, read-out: Percentage of controll cell growth when tested in an amount of 5 x 10^3 µg/ml): 41%
